# Assay results published in article PMC7937321 (Genes and Environment, 2021).
# Read-outs that look alike come from different tables or passages of the source.
# How the values were obtained:
# [1] = tested on: human lymphoblastoid TK6 cells, thymidine kinase gene; experiment: TK gene mutation assay (TK6 assay, OECD TG490); details: for MF: graph data
# Procedure: In principle, this collaborative study conducted the treatment of test substances, the dose finding, and the main test of TK6 assays, according to the OECD Guideline TG490 [17]. […] Briefly, test substances were dissolved in an appropriate solvent (DMSO or ethanol) and then serially diluted to prepare final concentrations. […] The 4 h and 24 h treatments were conducted by shaking and static exposures, respectively. After treatment with test substances, cells were centrifuged (1000 rpm, 5 min), supernatants were removed, and cells were washed with a serum-free medium or Hank’s Balanced Salt Solution. After centrifugation (1000 rpm, 5 min) to remove the supernatant, cells (2 × 10^7 cells) were dispersed in an RPMI medium containing 10% serum, and cell concentration was measured. Treated cells were cultured at 37 °C with 5% CO2 condition and used for TK6 assays. At that time, to calculate the cloning efficiency (CE) (Eq. 1), the cells were cultured in a 96-well microplate at a concentration of about 1.6 cells/well for 2 weeks.
# The TK6 assay is conducted between 20 and 10% RS0 as a maximum dose if cytotoxicity is observed. If no precipitate or limiting cytotoxicity was observed, the maximum dose was the lowest concentration among 10 mM, 2 mg/mL, or 2 μL/mL of the test substance. When the main TK6 assay was difficult to conduct under the condition of RS0 values from 20 to 10%, the test was conducted between 20 and 10% relative total growth (RTG), described later, as a maximum dose.
# On the third day of culture, CE3 plates for determining plating efficiency and mutant frequency (MF) plates for mutation detection were prepared. CE3 plates were seeded in 96-well microplates at a concentration of about 1.6 cells/well. The MF plates were seeded in 96-well microplates at 40,000 cells/well in the presence of 3 μg/mL of trifluorothymidine (Sigma Aldrich).
# Mutant colonies in MF plates were calculated using Eq. 7 using the Poisson distribution. EW was the number of wells without colonies, and TW was the total number of wells. N was the average number of cells per well (N = 40,000 in this study). The data were statistically analyzed by Omori’s method, a modified Dunnett’s procedure for identifying clear negatives, a Simpson–Margolin procedure for detecting downturn data, and a trend test to evaluate the dose dependency [42, 43]. The acceptability criterion for the test was that the MF value of the positive control group of each laboratory was increased with statistical significance compared with that of the concurrent negative control group.
# [2] = tested on: L5178Y mouse lymphoma cells; details: ref [27], [46]-[53], Table 3, cited from earlier work
# rodent = details: rodent; ref [20]-[41], Table 2; cited from earlier work
# [3] = tested on: TA1538, TA100, TA98, TA97, TA1535; details: cited from earlier work
# [4] = 24 h treatment, -S9 mix, 173.70 μg/mL
# [5] = 24 h treatment, -S9 mix, 277.90 μg/mL
# [6] = 24 h treatment, -S9 mix, 444.70 μg/mL
# [7] = 24 h treatment, -S9 mix, 711.5 μg/mL
# [8] = 24 h treatment, -S9 mix, 1138.4 μg/mL
# [9] = 24 h treatment, -S9 mix, 1821.4 μg/mL
# [10] = Long-term treatment without metabolic activation
# [11] = Short treatment, +S9 mix, dose 173.7 μg/mL
# [12] = Short treatment, +S9 mix, dose 277.9 μg/mL
# [13] = Short treatment, +S9 mix, dose 445 μg/mL
# [14] = Short treatment, +S9 mix, dose 712 μg/mL
# [15] = Short treatment, +S9 mix, dose 1138 μg/mL
# [16] = Short treatment, +S9 mix, dose 1821 μg/mL
# [17] = Short treatment, -S9 mix, dose 173.70 μg/mL
# [18] = Short treatment, -S9 mix, dose 277.90 μg/mL
# [19] = Short treatment, -S9 mix, dose 444.70 μg/mL
# [20] = Short treatment, -S9 mix, dose 711.5 μg/mL
# [21] = Short treatment, -S9 mix, dose 1138.4 μg/mL
# [22] = Short treatment, -S9 mix, dose 1821.4 μg/mL
structure (smiles),measurement,setting,value
Nc1cc([N+](=O)[O-])ccc1C(=O)O [4-Nitroanthranilic acid],"TK6 assay result (mutant frequency increase, judgment)",[1]; 4h treatment (+S9),no increase in mutation frequency
same,"TK6 assay result (mutant frequency increase, judgment)","[1]; 4h treatment (+S9), listed as 4-nitroanthranilic acid",negative
same,"TK6 assay result (mutant frequency increase, judgment)",[1]; 4h treatment (-S9),no increase in mutation frequency
same,"TK6 assay result (mutant frequency increase, judgment)","[1]; 4h treatment (-S9), listed as 4-nitroanthranilic acid",negative
same,"TK mutation assay, Long term","[1]; 24 h, without S9",Pos
same,"TK6 assay result (mutant frequency increase, judgment)",[1]; 24h treatment (-S9),statistically significant increase in mutation frequency
same,"TK6 assay result (mutant frequency increase, judgment)","[1]; 24h treatment (-S9), listed as 4-nitroanthranilic acid",positive
same,%SG,[1]; [4],68.7%
same,Mut. freq. (×10-6) N-MF,[1]; [4],1.8 ×10-6
same,Mut. freq. (×10-6) S-MF,[1]; [4],3.9 ×10-6
same,Mut. freq. (×10-6) T-MF,[1]; [4],5.6 ×10-6
same,%SG,[1]; [5],61.0%
same,Mut. freq. (×10-6) N-MF,[1]; [5],3.1 ×10-6
same,Mut. freq. (×10-6) S-MF,[1]; [5],4.8 ×10-6
same,Mut. freq. (×10-6) T-MF,[1]; [5],7.9 ×10-6
same,%SG,[1]; [6],63.1%
same,Mut. freq. (×10-6) N-MF,[1]; [6],2.6 ×10-6
same,Mut. freq. (×10-6) S-MF,[1]; [6],4.4 ×10-6
same,Mut. freq. (×10-6) T-MF,[1]; [6],7.0 ×10-6
same,%SG,[1]; [7],72.4%
same,Mut. freq. (×10-6) N-MF,[1]; [7],3.0 ×10-6
same,Mut. freq. (×10-6) S-MF,[1]; [7],7.8 ×10-6
same,Mut. freq. (×10-6) T-MF,[1]; [7],10.7 ×10-6
same,%SG,[1]; [8],57.1%
same,Mut. freq. (×10-6) N-MF,[1]; [8],4.1 ×10-6
same,Mut. freq. (×10-6) S-MF,[1]; [8],5.5 ×10-6
same,Mut. freq. (×10-6) T-MF,[1]; [8],9.7 ×10-6
same,%SG,[1]; [9],68.5%
same,Mut. freq. (×10-6) N-MF,[1]; [9],4.4 ×10-6
same,Mut. freq. (×10-6) S-MF,[1]; [9],9.5 ×10-6
same,Mut. freq. (×10-6) T-MF,[1]; [9],13.9 ×10-6
same,"Dunnett type test, test statistic",[1]; [10],2.990
same,"Trend test, test statistic",[1]; [10],4.178
same,%SG,[1]; [11],38.9%
same,Mut. freq. (×10-6) N-MF,[1]; [11],6.7 ×10-6
same,Mut. freq. (×10-6) S-MF,[1]; [11],4.3 ×10-6
same,Mut. freq. (×10-6) T-MF,[1]; [11],10.9 ×10-6
same,%SG,[1]; [12],40.2%
same,Mut. freq. (×10-6) N-MF,[1]; [12],6.1 ×10-6
same,Mut. freq. (×10-6) S-MF,[1]; [12],4.1 ×10-6
same,Mut. freq. (×10-6) T-MF,[1]; [12],10.3 ×10-6
same,%SG,[1]; [13],44.7%
same,Mut. freq. (×10-6) N-MF,[1]; [13],4.6 ×10-6
same,Mut. freq. (×10-6) S-MF,[1]; [13],3.7 ×10-6
same,Mut. freq. (×10-6) T-MF,[1]; [13],8.4 ×10-6
same,%SG,[1]; [14],49.2%
same,Mut. freq. (×10-6) N-MF,[1]; [14],5.5 ×10-6
same,Mut. freq. (×10-6) S-MF,[1]; [14],5.3 ×10-6
same,Mut. freq. (×10-6) T-MF,[1]; [14],10.7 ×10-6
same,%SG,[1]; [15],37.9%
same,Mut. freq. (×10-6) N-MF,[1]; [15],6.4 ×10-6
same,Mut. freq. (×10-6) S-MF,[1]; [15],3.9 ×10-6
same,Mut. freq. (×10-6) T-MF,[1]; [15],10.3 ×10-6
same,%SG,[1]; [16],43.4%
same,Mut. freq. (×10-6) N-MF,[1]; [16],6.4 ×10-6
same,Mut. freq. (×10-6) S-MF,[1]; [16],4.9 ×10-6
same,Mut. freq. (×10-6) T-MF,[1]; [16],11.3 ×10-6
same,%SG,[1]; [17],60.5%
same,Mut. freq. (×10-6) N-MF,[1]; [17],3.6 ×10-6
same,Mut. freq. (×10-6) S-MF,[1]; [17],5.5 ×10-6
same,Mut. freq. (×10-6) T-MF,[1]; [17],9.0 ×10-6
same,%SG,[1]; [18],56.6%
same,Mut. freq. (×10-6) N-MF,[1]; [18],3.8 ×10-6
same,Mut. freq. (×10-6) S-MF,[1]; [18],4.9 ×10-6
same,Mut. freq. (×10-6) T-MF,[1]; [18],8.7 ×10-6
same,%SG,[1]; [19],46.7%
same,Mut. freq. (×10-6) N-MF,[1]; [19],4.2 ×10-6
same,Mut. freq. (×10-6) S-MF,[1]; [19],3.7 ×10-6
same,Mut. freq. (×10-6) T-MF,[1]; [19],7.9 ×10-6
same,%SG,[1]; [20],48.9%
same,Mut. freq. (×10-6) N-MF,[1]; [20],4.3 ×10-6
same,Mut. freq. (×10-6) S-MF,[1]; [20],4.2 ×10-6
same,Mut. freq. (×10-6) T-MF,[1]; [20],8.5 ×10-6
same,%SG,[1]; [21],52.7%
same,Mut. freq. (×10-6) N-MF,[1]; [21],3.7 ×10-6
same,Mut. freq. (×10-6) S-MF,[1]; [21],4.1 ×10-6
same,Mut. freq. (×10-6) T-MF,[1]; [21],7.8 ×10-6
same,%SG,[1]; [22],65.9%
same,Mut. freq. (×10-6) N-MF,[1]; [22],3.0 ×10-6
same,Mut. freq. (×10-6) S-MF,[1]; [22],5.9 ×10-6
same,Mut. freq. (×10-6) T-MF,[1]; [22],9.0 ×10-6
same,"Dunnett type test, test statistic",[1]; Short-term treatment with metabolic activation,0.732
same,"Dunnett type test, test statistic",[1]; Short-term treatment without metabolic activation,0.791
same,MF,"[1]; 24 h, -S9 mix, 173.70 μg/mL",5.6
same,MF,"[1]; 24 h, -S9 mix, 277.90 μg/mL",7.9
same,MF,"[1]; 24 h, -S9 mix, 444.70 μg/mL",7.0
same,MF,"[1]; 24 h, -S9 mix, 711.5 μg/mL",10.7
same,MF,"[1]; 24 h, -S9 mix, 1138.4 μg/mL",9.7
same,MF,"[1]; 24 h, -S9 mix, 1821.4 μg/mL",13.9
same,MF,[1]; [11],10.9
same,MF,[1]; [12],10.3
same,MF,"[1]; Short treatment, +S9 mix, dose 444.7 μg/mL",8.4
same,MF,"[1]; Short treatment, +S9 mix, dose 711.5 μg/mL",10.7
same,MF,"[1]; Short treatment, +S9 mix, dose 1138.4 μg/mL",10.3
same,MF,"[1]; Short treatment, +S9 mix, dose 1821.4 μg/mL",11.3
same,MF,[1]; [17],9.0
same,MF,[1]; [18],8.7
same,MF,[1]; [19],7.9
same,MF,[1]; [20],8.5
same,MF,[1]; [21],7.8
same,MF,[1]; [22],9.0
same,"TK mutation assay, With S9","[1]; short-term 4 h, with rat liver S9",Neg
same,"TK mutation assay, Without S9","[1]; short-term 4 h, without S9",Neg
same,"MLA (TK gene locus), With S9",[2]; with S9,Pos
same,"MLA (TK gene locus), Without S9",[2]; without S9,Equivocal^d
same,Carcinogenicity Studies,rodent,Neg
same,The Highest Specific Activity and the Strain,"[3]; TA100 with S9, ref Table 2",2830 revertants/mg
same,The Highest Specific Activity and the Strain,"[3]; TA1535 with S9, ref [33]",3600 revertants/mg
same,"Bacterial reverse mutation assay, With S9","[3]; with S9, ref [18]-[40], Table 2",Pos
same,"Bacterial reverse mutation assay, Without S9","[3]; without S9, ref [18]-[40], Table 2",Pos
